Measurements reported in article PMC3111206, “Phase I study of PD 0332991, a cyclin-dependent kinase inhibitor, administered in 3-week cycles (Schedule 2/1)” (British Journal of Cancer, 2011).

How the values were obtained:
[1] = Phase I dose escalation: dose-limiting toxicities, MTD and RP2D (Schedule 2/1); type: in vivo
Source text: This was a phase I, dose-finding, open-label, non-comparative study of PD 0332991 in patients with Rb-positive solid tumours or non-Hodgkin's lymphoma (NHL). […] On the basis of the low frequency of Rb expression in small-cell lung cancer and […] ([Lee et al, 1987]; [Yokota et al, 1988]; [Shimizu et al, 1994]), patients with both tumour types were excluded from the trial.
The primary objectives of this study were to establish the safety profile of PD 0332991 given in a 3-week treatment cycle by identifying dose-limiting toxicities (DLTs), the maximum administered dose and the maximum tolerated dose (MTD), and to establish the recommended dose for phase II studies (RP2D). Secondary objectives included characterisation of single-dose and steady-state pharmacokinetics (PKs) of oral PD 0332991 and evaluation of preliminary antitumour activity.
Cohorts of patients received escalating doses of PD 0332991 given daily for 2 weeks, followed by 1 week off treatment (Schedule 2/1). Treatment cycles were repeated until the occurrence of disease progression, unacceptable toxicity or withdrawal of consent.
Three to four evaluable patients were initially enrolled per dose-escalation cohort, and the cohort expanded to six evaluable patients, if a DLT occurred during the first treatment cycle. […] The MTD was defined as the highest dose level for which the incidence of first-cycle DLT was <2/6. Cohorts receiving the MTD were expanded to include a minimum of 12 patients. […]

Rb-negative tumours = system: Rb-negative tumours; parameters: method as in Fry et al, 2004; details: in vivo; ref Fry et al, 2004; cited from earlier work
[2] = system: Rb-positive human xenograft models; parameters: method as in Fry et al, 2004; details: several Rb-positive human xenograft models in vivo; ref Fry et al, 2004; cited from earlier work
[3] = QTc interval from triplicate electrocardiograms; type: in vivo, human; details: Fridericia's correction
Description: Safety was assessed at baseline, at regular intervals throughout the study, and within 1 week following treatment discontinuation by recording AEs, haematological and biochemical parameters, and physical status (including ECOG performance status). Adverse event severity was graded using the National Cancer Institute Common Terminology Criteria for Adverse Events, version 3.0 ([Trotti et al, 2003]). Triplicate electrocardiograms (ECGs) ∼2 min apart were taken at baseline, 3 h post-dose on days 1, 8 and 15 of cycle 1, and on day 15 of subsequent cycles for up to six cycles.

[4] = system: absolute neutrophil count (ANC); experiment: Pharmacodynamic Emax modelling of change in ANC vs individual AUC; type: in vivo; details: Homo sapiens, cycle 1, vs individual AUC, 30 patients, s.e. 11.2, 12.6% CV, read-out: Emax for ANC (change from baseline)
Description: To document the course of changes in absolute neutrophil count (ANC) and platelets over time during the first two cycles of treatment, an exploratory analysis of data available from the weekly safety laboratory tests was carried out. Possible relationships between PD 0332991 exposure and changes in (i) ANC and (ii) platelets were assessed further by fitting a simple model (without baseline) to determine the maximum […] (Emax).

[5] = system: Rb-positive solid tumours or non-Hodgkin's lymphoma; experiment: Tumour response by RECIST v1.0; type: in vivo, human
Description: Tumour measurements derived from computed tomography or magnetic resonance imaging scans were obtained at baseline, after every 2 cycles during the study, and at the end of treatment. Tumour responses were evaluated based on Response Evaluation Criteria in Solid Tumors, version 1.0 ([Therasse et al, 2000]).

## CC(=O)c1c(C)c2cnc(Nc3ccc(N4CCNCC4)cn3)nc2n(C2CCCC2)c1=O [PD 0332991]
[1]; human, in vivo
  Dose recommended for phase II study: 200 mg QD
[1]; human, in vivo, po
  Maximum administered dose: 225 mg QD
[1]; oral, Schedule 2/1 (14 days on, 7 days off)
  Maximum tolerated dose (MTD): 200 mg QD
Rb-negative tumours
  Activity against Rb-negative tumours: without activity
[2]
  Effect on tumour growth: significantly reduces tumour growth and leads to tumour regression
[3]
  Patients with maximum on-treatment QTc ⩾500-msec or >30-msec increase from baseline: no patients
[4]
  Emax: 88.6%
[5]; 31 evaluable patients, testicular cancer, 200 mg QD, Schedule 2/1
  Patients with partial response (PR): one
[5]; one patient with angiomyxoma, 200-mg QD cohort
  Duration of stable disease: 19 cycles
[5]; one patient with liposarcoma, 100-mg QD cohort
  Duration of stable disease: 11 cycles
[5]; one patient with liposarcoma, 225-mg QD cohort
  Duration of stable disease: ≥ 23 cycles
